The source of these data is ChEMBL document CHEMBL1153275, “Tyrokeradines A and B, new bromotyrosine alkaloids with an imidazolyl-quinolinone moiety from a verongid sponge” (2009).

What all share (assay type): functional
One experiment has as its system Micrococcus luteus. As to the kind of experiment: Antimicrobial activity against Micrococcus luteus.
A further experiment deals with Staphylococcus aureus. As to the kind of experiment: Antimicrobial activity against Staphylococcus aureus.
The test system of experiment [1] is Trichophyton mentagrophytes. As to the kind of experiment: Antimicrobial activity against Trichophyton mentagrophytes.
Another experiment deals with Cryptococcus neoformans. As to the kind of experiment: Antimicrobial activity against Cryptococcus neoformans.
Another experiment concerns Candida albicans. As to the kind of experiment: Antimicrobial activity against Candida albicans.
For a further experiment, the system named is Aspergillus niger. As to the kind of experiment: Antimicrobial activity against Aspergillus niger.

Converted amounts (≈) assume the structure as drawn. Some results are limits rather than exact numbers.

Take `C[N+](C)(C)CCCOc1c(Br)cc(C/C(=N\O)C(=O)NCCc2nc(N)[nH]c2-c2cc(O)c3[nH]cc(O)c(=O)c3c2O)cc1Br` [TYROKERADINE A]: the MIC (against Micrococcus luteus; against Staphylococcus aureus; in experiment [1]; with Cryptococcus neoformans; against Candida albicans; against Aspergillus niger) was above 25 µg/mL throughout.
On to `NCCCOc1c(Br)cc(C/C(=N\O)C(=O)NCCc2nc(N)[nH]c2-c2cc(O)c3[nH]cc(O)c(=O)c3c2O)cc1Br` [TYROKERADINE B], for which the MIC amounted to 25 µg/mL (≈ 35.2 µM) with Micrococcus luteus; 25 µg/mL (≈ 35.2 µM) against Staphylococcus aureus; 25 µg/mL (≈ 35.2 µM) in experiment [1]; 12.5 µg/mL (≈ 17.6 µM) in the experiment on Cryptococcus neoformans; 12.5 µg/mL (≈ 17.6 µM) in the experiment on Candida albicans; 12.5 µg/mL (≈ 17.6 µM) against Aspergillus niger.
